Our source for the IC50 and melting point values is patent publication US8389721B2, “Solubilized topoisomerase poisons” (Rutgers, The State University of New Jersey, priority 2001, dated 2013).

In one series the test system is CPT-K5. The series is described as follows: MTT-microtiter plate tetrazolinium cytotoxicity assay (Test B), camptothecin-resistant variant. The format is cell-based. The following applies: Homo sapiens. The protocol: (§1) Test B. Inhibition of Cell Growth: MTT-Microtiter Plate Tetrazolinium Cytotoxicity Assay (RPMI 8402, CPT-K5, U937, U937/CR Cells)
(§2) The cytotoxicity is determined using the MTT-microtiter plate tetrazolinium cytotoxicity assay (MTA), see Chen A. Y. et al. Cancer Res. 1993, 53, 1332; Mosmann, T. J., J. Immunol. Methods 1983, 65, 55; and Carmichael, J. et al. Cancer Res. 1987, 47, 936. The human lymphoblast RPMI 8402 and its camptothecin-resistant variant cell line, CPT-K5 were provided by Dr. Toshiwo Andoh (Anchi Cancer Research Institute, Nagoya, Japan), see Andoh, T.; Okada, K, Adv. in Pharmacology 1994, 29B, 93. Human U-937 myeloid leukemia cells and U-937/CR cells were described by Rubin et al., J. Biol. Chem., 1994, 269, 2433-2439. The cytotoxicity assay is performed by using 96-well microtiter plates using 2000 cells/well, in […] of growth medium. Cells are grown in suspension at 37° C. in 5% CO2 and maintained by regular passage in RPMI medium supplemented with 10% heat-inactivated fetal bovine serum, L-glutamine (2 mM), penicillin (100 U/mL), and streptomycin (0.1 mg/mL). For determination of IC50, cells are exposed continuously for 3-4 days to varying concentrations of drug, and MTT assays were performed at the end of the fourth day. […] All assays are performed at least twice in 6 replicate wells. All assays are performed under the direction of Dr. L. F. Liu, Department of Pharmacology, The University of Medicine and Dentistry of New Jersey, Robert Wood Johnson Medical School, Piscataway, N.J.

A further series has as its system RPMI 8402. The series is described as follows: MTT-microtiter plate tetrazolinium cytotoxicity assay (Test B). Type of series: cell-based, human. The procedure:
as §1, §2

Setting [1] is: camptothecin-resistant variant cell line CPT-K5, continuous exposure 3-4 days, MTT, read-out: CPT-K5 IC50 values.
[2] abbreviates: human lymphoblast RPMI 8402 cells, continuous exposure 3-4 days, MTT, read-out: RPMI 8402 [μM] IC50 values.

The structures appear in SMILES notation. Read-outs that look alike come from different tables or passages of the source.

As to `CC[C@@]1(O)C(=O)OCc2c1cc1n(c2=O)Cc2cc3ccccc3nc2-1` [Camptothecin], the half-maximal inhibitory concentration (IC50) in the series on CPT-K5 (CPT-K5, read-out: CPT-K5 IC50 values) turned out to be 4500 nM; in the series on RPMI 8402 (Homo sapiens, RPMI 8402, read-out: RPMI 8402 [μM] IC50 values), 0.002 µM.
As to `COc1cc2c(=O)n(CCN(C)C)c3c4cc5c(cc4nnc3c2cc1OC)OCO5` [Compound 5, 11,12-dihydro-2,3-dimethoxy-8,9-methylenedioxy-11-[2-(dimethylamino)ethyl]-5,6,11-triazachrysen-12-one], the concentration for half-maximal inhibition (IC50) came out at 1200 nM in the series with CPT-K5 (setting [1]) and 0.003 µM in the series with RPMI 8402 (setting [2]).
Regarding `COc1cc2c(=O)n(CC3CCCO3)c3c4cc5c(cc4nnc3c2cc1OC)OCO5` (stereo not drawn) [Example 4, 2,3-Dimethoxy-8,9-methylenedioxy-11-(2-tetrahydrofuranyl)methyl-11H-5,6,11-triazachrysen-12-one], the melting point was 300 to 303 °C (dec.).
The same measure, in the same setting: the figure for `COc1cc2c(=O)n(CCN3CCCC3)c3c4cc5c(cc4nnc3c2cc1OC)OCO5` [Example 5, 2,3-Dimethoxy-8,9-methylenedioxy-11-[2-(pyrrolidin-1-yl)ethyl]-11H-5,6,11-triaza-chrysen-12-one] is 229 °C; for `COc1cc2c(=O)n(CCN3CCCCC3)c3c4cc5c(cc4nnc3c2cc1OC)OCO5` [Example 6, 2,3-Dimethoxy-8,9-methylenedioxy-11-[2-(piperidin-1-yl)ethyl]-11H-5,6,11-triaza-chrysen-12-one] it is 294 to 295 °C; for `COc1cc2c(=O)n(C(C)CN(C)C)c3c4cc5c(cc4ncc3c2cc1OC)OCO5` (stereo not drawn) [Example 8, 8,9-Dimethoxy-2,3-methylenedioxy-5-[2-(N,N-dimethylamino)-1-methylethyl]-5H-dibenzo[c,h]1,6-naphthyridin-6-one] it is 186 to 187 °C.
Consider `COc1cc2c(=O)n(CCN3CCCC3)c3c4cc5c(cc4ncc3c2cc1OC)OCO5` [Example 9, 8,9-Dimethoxy-2,3-methylenedioxy-5-[2-(pyrrolidin-1-yl)ethyl]-5H-dibenzo[c,h]1,6-naphthyridin-6-one], for which the melting point is 255 to 257 °C (dec.).
Regarding `COc1cc2c(=O)n(CCN3CCN(C)CC3)c3c4cc5c(cc4ncc3c2cc1OC)OCO5` [Example 10, 8,9-Dimethoxy-2,3-methylenedioxy-5-[2-(4-methylpiperazin-1-yl)ethyl]-5H-dibenzo[c,h]1,6-naphthyridin-6-one], the melting point fell in the range of 244 to 246 °C.
For the compound `COc1cc2c(=O)n(CCCN(C)C)c3c4cc5c(cc4ncc3c2cc1OC)OCO5` [Example 11, 8,9-Dimethoxy-2,3-methylenedioxy-5-[3-(N,N-dimethylamino)propyl]-5H-dibenzo[c,h]1,6-naphthyridin-6-one], the melting point is 262 to 264 °C (dec.).
The compound `COc1cc2c(=O)n(CC3CCCO3)c3c4cc5c(cc4ncc3c2cc1OC)OCO5` (stereo not drawn) [Example 12, 8,9-Dimethoxy-2,3-methylenedioxy-5-(2-tetrahydrofuranyl)methyl-5H-dibenzo[c,h]1,6-naphthyridin-6-one] returned a melting point of 270 to 273 °C.
As to `COc1cc2c(=O)n(CCO)c3c4cc5c(cc4ncc3c2cc1OC)OCO5` [Example 13, 8,9-Dimethoxy-2,3-methylenedioxy-5-[2-(hydroxy)ethyl]-5H-dibenzo[c,h]1,6-naphthyridin-6-one], the melting point was 285 to 286 °C.
The compound `COc1cc2c(=O)n(CCOCCO)c3c4cc5c(cc4ncc3c2cc1OC)OCO5` [Example 14, 8,9-Dimethoxy-2,3-methylenedioxy-5-[2-(2-hydroxyethoxy)ethyl]-5H-dibenzo[c,h]1,6-naphthyridin-6-one] gave a melting point of 235 °C.
For the compound `COc1cc2c(cc1OC)-c1cnc3cc4c(cc3c1N(CCN(C)C)C2)OCO4` [Example 17, 8,9-Dimethoxy-2,3-methylenedioxy-5-[2-(N,N-dimethylamino)ethyl]-5,6-dihydro-dibenzo[c,h]1,6-naphthyridine], the melting point is 271 to 273 °C (dec.).
Same read-out and setting: the figure for `COc1cc2c(cc1OC)-c1cnc3cc4c(cc3c1N(C(C)CN(C)C)C2)OCO4` (stereo not drawn) [Example 18, 8,9-Dimethoxy-2,3-methylenedioxy-5-[2-(N,N-dimethylamino)-1-methylethyl]-5,6-dihydro-dibenzo[c,h]1,6-naphthyridine] is 153 to 154 °C; for `CCN(CC)CCn1c(=O)c2cc(OC)c(OC)cc2c2cnc3cc4c(cc3c21)OCO4` [Example 19, 8,9-Dimethoxy-2,3-methylenedioxy-5-[2-(N,N-diethylamino)ethyl]-5H-dibenzo[c,h]1,6-naphthyridin-6-one] it is 221 to 223 °C (dec.).
As for `CCc1c2c(nc3ccc(OC(=O)N4CCC(N5CCCCC5)CC4)cc13)-c1cc3c(c(=O)n1C2)COC(=O)[C@]3(O)CC` [Irinotecan], the values for the IC50 in the series with CPT-K5 (setting [1]) and in the series with RPMI 8402 (setting [2]) were greater than 100000 nM and 0.57 µM, respectively.
For `CC[C@@]1(O)C(=O)OCc2c1cc1n(c2=O)Cc2cc3c(CN(C)C)c(O)ccc3nc2-1` [Topotecan], the half-maximal inhibitory concentration (IC50) in the series with CPT-K5 (setting [1]) is greater than 10000 nM; in the series on RPMI 8402 (setting [2]) it was 0.005 µM.
